Results published in patent US9145403B2, “Heterocyclic alkanol derivatives” (Bayer Intellectual Property GmbH, priority 2010, dated 2015).

Assays:
Leptosphaeria nodorum = Leptosphaeria nodorum test (wheat)/protective; assay type: in vivo; conditions: young wheat plants sprayed at 500 ppm, inoculated 1 day after treatment, evaluation 7-9 days after inoculation; 0% = control, 100% = no infection
Protocol: Leptosphaeria nodorum Test (Wheat)/Protective Solvent: 49 parts by weight of N,N-dimethyformamide Emulsifler: 1 part by weight of alkylaryl polyglycol ether To produce an appropriate active ingredient formulation, 1 part by weight of active ingredient is mixed with the specified amounts of solvent and emulsifler, and the concentrate is diluted with water to the desired concentration. To test for protective activity, young plants are sprayed with the formulation of active ingredient at the stated application rate. One day after the treatment, the plants are inoculated with an aqueous spore suspension of Leptosphaeria nodorum and then remain at 100% relative air humidity and 22° C. for 48 h. The plants are then placed in a greenhouse at 90% relative air humidity and a temperature of 22° C. Evaluation follows 7-9 days after the inoculation. 0% means an efficacy which corresponds to that of the control, whereas an efficacy of 100% means that no infection is observed. In this test, the following inventive compounds, at an active ingredient concentration of 500 ppm, show an efficacy of 70% or more.

Sphaerotheca fuliginea = test: Sphaerotheca test (cucumber)/protective; assay type: in vivo; conditions: young cucumber plants sprayed at 500 ppm, inoculated 1 day after treatment, evaluation 7 days after inoculation; 0% = control, 100% = no infection
Protocol: Table D: Sphaerotheca Test (Cucumber)/Protective Solvent: 49 parts by weight of N,N-dimethylformamide Emulsifier: 1 part by weight of alkylaryl polyglycol ether To produce an appropriate active ingredient formulation, 1 part by weight of active ingredient is mixed with the specified amounts of solvent and emulsifier, and the concentrate is diluted with water to the desired concentration. To test for protective activity, young cucumber plants are sprayed with the formulation of active ingredient at the stated application rate. 1 day after the treatment, the plants are inoculated with a spore suspension of Sphaerotheca fuliginea. The plants are then placed in a greenhouse at 70% relative air humidity and a temperature of 23° C. Evaluation follows 7 days after the inoculation. 0% means an efficacy which corresponds to that of the control, whereas an efficacy of 100% means that no infection is observed. In this test, the following inventive compounds, at an active ingredient concentration of 500 ppm, show an efficacy of 70% or more.

Alternaria solani = test: Alternaria test (tomato)/protective; assay type: in vivo; conditions: young tomato plants sprayed at 500 ppm, inoculated 1 day after treatment, evaluation 7 days after inoculation; 0% = control, 100% = no infection
Protocol: Alternaria Test (Tomato)/Protective Solvent: 49 parts by weight of N,N-dimethyformamide Emulsifier: 1 part by weight of alkylaryl polyglycol ether To produce an appropriate active ingredient formulation, 1 part by weight of active ingredient is mixed with the specified amounts of solvent and emulsifier, and the concentrate is diluted with water to the desired concentration. To test for protective activity, young tomato plants are sprayed with the formulation of active ingredient at the stated application rate. One day after the treatment, the plants are inoculated with a spore suspension of Alternaria solani and are then left at 100% relative humidity and 22° C. for 24 hours. The plants are then left at 96% relative air humidity and a temperature of 20° C. Evaluation follows 7 days after the inoculation. 0% means an efficacy which corresponds to that of the control, whereas an efficacy of 100% means that no infection is observed. In this test, the following inventive compounds, at an active ingredient concentration of 500 ppm, show an efficacy of 70% or more.

Puccinia recondita = test: Puccinia test (wheat)/protective; assay type: in vivo; conditions: young wheat plants sprayed at 500 ppm, inoculated 1 day after treatment, evaluation 7-9 days after inoculation; 0% = control, 100% = no infection
Protocol: Puccinia Test (Wheat)/Protective Solvent: 49 parts by weight of N,N-dimethyformamide Emulsifier: 1 part by weight of alkylaryl polyglycol ether To produce an appropriate active ingredient formulation, 1 part by weight of active ingredient is mixed with the specified amounts of solvent and emulsifier, and the concentrate is diluted with water to the desired concentration. To test for protective activity, young plants are sprayed with the formulation of active ingredient at the stated application rate. One day after the treatment, the plants are inoculated with a spore suspension of Puccinia recondita and then left at 100% relative humidity and 22° C. for 48 h. The plants are then left at 80% relative air humidity and a temperature of 20° C. Evaluation follows 7-9 days after the inoculation. 0% means an efficacy which corresponds to that of the control, whereas an efficacy of 100% means that no infection is observed. In this test, the following inventive compounds, at an active ingredient concentration of 500 ppm, show an efficacy of 70% or more.

[1] = log P by HPLC (EEC Directive 79/831 Annex V.A8), reversed-phase C18; assay type: physicochemical; conditions: reversed-phase C18 HPLC column; method [a]: LC-MS, acidic range, pH 2.7, 0.1% aqueous formic acid/acetonitrile, linear gradient 10% to 95% acetonitrile
Protocol: The log P values were measured in accordance with EEC Directive 79/831 Annex V.A8 by HPLC (High Performance Liquid Chromatography) using reversed-phase columns (C 18) by the following methods: [a] The LC-MS determination in the acidic range is effected at pH 2.7 with 0.1% aqueous formic acid and acetonitrile (contains 0.1% formic acid) as eluents; linear gradient from 10% acetonitrile to 95% acetonitrile.

Row | chromatographic logP [1] | Compound | Efficacy (%) (Leptosphaeria nodorum) | Efficacy (%) (Sphaerotheca fuliginea) | Efficacy (%) (Alternaria solani) | Efficacy (%) (Puccinia recondita)
1 |  | CC(C)(C)c1ncc(OCC(O)(c2cncs2)C(C)(C)C)cn1 (centres unmarked) [Compound 2] | 95% |  |  | 
2 |  | CC(C)(C)C(O)(COc1ccc(Cl)nc1)c1cncs1 (centres unmarked) [Compound 3] |  | 80% | 89% | 80%
3 | 0.89 | CC(C)(C)C(O)(COc1cccnc1)c1cncs1 (centres unmarked) [Compound 4] |  |  |  | 80%
4 | 1.4 | CC(C)(C)C(O)(COc1cncnc1)c1cncs1 (centres unmarked) [Compound 6] | 70% |  |  | 
